Results on three compounds are retold here after US6554620B1, “Aqueous disinfectant/sterilizing agent for foods” (priority 2001, dated 2003).

Data set [1] concerns Salmonella typhimurium TA98. As to the kind of experiment: Reverse mutation screening assay. The data set is classed as cell-based. As for the experimental part:
(§1) The test was conducted at Biosafety Research Center for Foods, Drugs and Pesticides, in Shizuoka, Japan.

The test system of data set [2] is Salmonella typhimurium TA100. Description: Reverse mutation screening assay. The data set is classed as cell-based. As for the experimental part:
as §1

For data set [3] the following is noted: cited from earlier work.
A short description of data set [4]: Water solubility of hinokitiol. The class given is physicochemical. An excerpt:
It has been said that the water solubility of hinokitiol as a single substance, in weight is maximum 0.2 weight %. However, in our experiment, we could not make it more than 0.1 weight %.
With this invention, by mixing hinokitiol with the extract of aloe vera, green tea, low striped bamboo and dokudami, it is possible to make a 1.0 weight % water solution without difficulty. In addition to the above mixture, we have succeeded in making 10 weight % of concentration of hinokitiol in water basis by adding glycerin fatty acid ester as surface active agent and cara saponine, which is an emulsifier. Alcohol (ethanol) is not required as an ingredient to achieve the above noted high concentration of hinokitiol.
It is known fact that with the addition of ethanol, it is possible to make 5 weight % water solution but for some foods, adding alcohol is not suitable and can change the taste of foods. Therefore, this invention of non-alcoholic water soluble disinfectant solution has particular significance.

For data set [5], the system named is Escherihia coli (IFO 3972). Description: Efficacy comparison (MIC method) of hinokitiol as single substance and the invented agent. The data set is classed as cell-based, Escherichia coli. Set-up: key to growth: growth of bacteria is shown as “+”; no growth is shown as “−”. The following applies: 7 days at 30° C. As for the experimental part: (§2) Escherihia coli (IFO 3972) and Aspergillus niger (IFO 4414) were used utilizing the minimum inhibitory method (MIC) to conduct a comparison testing the efficacy of hinokitiol as a single substance and the invented aqueous disinfectant.
(§3) Type II of the invented agent as previously described, having a hinokitiol concentration of 0.1 weight % (1000 ppm) was diluted 10 times, 20 times, 50 times, and 100 times and standard agar plate for E-coli and potato dextrose agar plate for aspergillus niger were prepared for each concentration. With hinokitiol as single substance, for 1000 g of water, 1 g of hinokitiol was used to make 0.1% solution, and this was diluted 10 times, 20 times, 50 times, and 100 times and standard agar plates and potato dextrose plates were prepared at each concentration. E-coli and aspergillus niger were implanted to the plate and cultivated for 7 days at 30° C. and the growth of the bacteria was observed. The result are shown in Table 4 below, where growth of bacteria is shown as “+”, and no growth is shown as “−”.

Data set [6] deals with Aspergillus niger (IFO 4414). The data set is described as above. The class given is cell-based. The arrangement: key: growth of bacteria is shown as “+”; no growth is shown as “−”. The settings on record: 7 days at 30° C. As for the experimental part:
as §2, §3

The mark [7] stands for this setting: positive control requiring S9 mix, 0.5 μg/plate, Table 15.
[8] abbreviates: positive control requiring S9 mix, 0.5 μg/plate, Table 16.
Setting [9] is: positive control requiring S9 mix, 1.0 μg/plate, Table 15.
Where [10] appears, read: positive control requiring S9 mix, 1.0 μg/plate, Table 16.
[11] abbreviates: positive control not requiring S9 mix, 0.1 μg/plate, Table 15.
[12] abbreviates: positive control not requiring S9 mix, 0.1 μg/plate, Table 16.
Setting [13] is: positive control not requiring S9 mix, 0.01 μg/plate, Table 15.
Where [14] appears, read: positive control not requiring S9 mix, 0.01 μg/plate, Table 16.
[15] abbreviates: 10 times dilution of 0.1 weight % hinokitiol solution.
The mark [16] stands for this setting: 20 times dilution of 0.1 weight % hinokitiol solution.
Where [17] appears, read: 50 times dilution of 0.1 weight % hinokitiol solution.
The mark [18] stands for this setting: 100 times dilution of 0.1 weight % hinokitiol solution.

Where “and” joins values, the source holds several entries; their conditions need not be identical. Identical values can stand only once. Like-named read-outs stand apart in the source and are kept apart here.

Turning to `Nc1ccc2cc3ccccc3cc2c1` [2-AA], the “No. of revertants, mean in parentheses” value in data set [1] (setting [7]) was 200 colonies/plate; in data set [1] (setting [8]), 208 colonies/plate; in data set [2] (setting [9]), 686 colonies/plate; in data set [2] (setting [10]), 649 colonies/plate. For the same compound, the “No. of revertants, single plates” value was 203 colonies/plate and 196 colonies/plate in data set [1] (setting [7]); 197 colonies/plate and 219 colonies/plate in data set [1] (setting [8]); 683 colonies/plate and 688 colonies/plate in data set [2] (setting [9]); 647 colonies/plate and 650 colonies/plate in data set [2] (setting [10]).
With `NC(=O)/C(=C\c1ccc([N+](=O)[O-])o1)c1ccco1` [AF-2], the “No. of revertants, mean in parentheses” value turned out to be 733 colonies/plate in data set [1] (setting [11]), 692 colonies/plate in data set [1] (setting [12]), 370 colonies/plate in data set [2] (setting [13]) and 410 colonies/plate in data set [2] (setting [14]). Besides, the “No. of revertants, single plates” value in data set [1] (setting [11]) is 747 colonies/plate and 718 colonies/plate; in data set [1] (setting [12]) it was 698 colonies/plate and 686 colonies/plate; in data set [2] (setting [13]), 377 colonies/plate and 363 colonies/plate; in data set [2] (setting [14]), 408 colonies/plate and 412 colonies/plate.
Consider `CC(C)c1cccc(=O)c(O)c1` [Hinokitiol, β-Thujaplicin], for which the “water solubility of hinokitiol as a single substance, maximum as has been said” value in data set [3] (in water) is given as at most 0.2 weight %. The “hinokitiol water solution obtainable” value was 5 weight % in data set [3] (with the addition of ethanol, known fact); 1.0 weight % in data set [4] (mixed with extract of aloe vera, green tea, low striped bamboo and dokudami). Also, the “concentration of hinokitiol in water basis obtainable” value in data set [4] (extracts plus glycerin fatty acid ester and cara saponine, no alcohol) turned out to be 10 weight %. The “water solubility of hinokitiol as a single substance, in our experiment” value in data set [4] (in water) was at most 0.1 weight %. Moreover, the growth result in data set [5] (setting [15]) is reported as “−”; in data set [5] (setting [16]), “+”; in data set [5] (setting [17]), “+”; in data set [5] (setting [18]), “+”; in data set [6] (setting [15]) it was “−”; in data set [6] (setting [16]) it was “+”. The growth result in data set [6] (setting [17]) and in data set [6] (setting [18]) was “+” throughout. In addition, in data set [5] (E-coli and Aspergillus niger), the “hinokitiol concentration of the highest dilution that is effective (MIC method)” value is on record as 0.01%.
